Here are results for eleven compounds from doi:10.1101/2025.03.30.646141v1 (biorxiv, 2025).

The target of experiment [1] is T1, APH(3’)-IIb WT (Pseudomonas aeruginosa, UniProt Q9HWR2).
T1 sequence (Q9HWR2 1-268): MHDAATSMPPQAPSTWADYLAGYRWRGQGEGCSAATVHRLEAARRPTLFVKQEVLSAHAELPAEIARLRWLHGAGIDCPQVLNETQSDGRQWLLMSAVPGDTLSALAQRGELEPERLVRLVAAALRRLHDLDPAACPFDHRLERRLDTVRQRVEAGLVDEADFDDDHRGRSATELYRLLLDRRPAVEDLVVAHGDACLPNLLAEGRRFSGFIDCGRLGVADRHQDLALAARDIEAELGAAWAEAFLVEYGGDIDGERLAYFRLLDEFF
As to the kind of experiment: ITC. It is filed as binding.

Experiment [2] concerns the target T2, APH(3’)-IIb WT (Pseudomonas aeruginosa, UniProt Q9HWR2, M95L).
T2 sequence (Q9HWR2 1-268 M95L): T1 sequence (Q9HWR2 1-268)
As to the kind of experiment: PK/LDH coupled assay. The conditions noted are these: 100 µM MgATP, Tris buffer pH 7.5, 25 °C. It is filed as biochemical.

In experiment [3] the target is T1, APH(3’)-IIb WT. As to the kind of experiment: biochemical.

At APH(3’)-IIb WT [1], `NCC[C@H](O)C(=O)N[C@@H]1C[C@H](N)[C@@H](O[C@H]2O[C@H](CN)[C@@H](O)[C@H](O)[C@H]2O)[C@H](O)[C@H]1O[C@H]1O[C@H](CO)[C@@H](O)[C@H](N)[C@H]1O` [amikacin] yielded a Kd of 177000 ± 22000 nM. Moreover, the Km at APH(3’)-IIb WT [2] was 54.5 ± 21.5 µM.
On APH(3’)-IIb WT [3], `CN[C@@H]1[C@@H](O)[C@@H](O[C@@H]2[C@@H](O)[C@H](O[C@H]3O[C@H]([C@@H](C)O)[C@@H](O)[C@H](O)[C@H]3N)[C@@H](N)C[C@H]2N)OC[C@]1(C)O` [Geneticin] came in with an equilibrium dissociation constant (Kd) of 1590 ± 310 nM.
As to `NC[C@H]1O[C@H](O[C@H]2[C@H](O[C@@H]3O[C@H](CO)[C@@H](O)[C@H]3O)[C@@H](O)[C@H](N)C[C@@H]2N)[C@H](N)[C@@H](O)[C@@H]1O` [ribostamycin], on APH(3’)-IIb WT [1], the dissociation constant Kd was determined as 10 ± 1 nM. The Michaelis constant (Km) on APH(3’)-IIb WT [2] stood at 0.21 ± 0.17 µM.
In turn, `Nc1ncnc2c1ncn2[C@@H]1O[C@H](COP(=O)(O)OP(=O)(O)O)[C@@H](O)[C@H]1O` [ADP] showed a dissociation constant (Kd) at APH(3’)-IIb WT [1] of 4100 ± 500 nM.
Still for that read-out and setting: the same measure for `NC[C@H]1O[C@H](O[C@H]2[C@H](O)[C@@H](O[C@H]3O[C@H](CO)[C@@H](O)[C@H](N)[C@H]3O)[C@H](N)C[C@@H]2N)[C@H](N)C[C@@H]1O` [tobramycin]: 23 nM.
Take `CNC(C)[C@@H]1CC[C@@H](N)[C@@H](O[C@H]2[C@H](O)[C@@H](O[C@H]3OC[C@](C)(O)[C@H](NC)[C@H]3O)[C@H](N)C[C@@H]2N)O1` (stereo partly shown) [gentamicin]: the Kd at APH(3’)-IIb WT [3] came to 59 ± 5 nM.
On to `NC[C@@H]1O[C@H](O[C@H]2[C@@H](O)[C@H](O[C@@H]3[C@@H](O)[C@H](N)C[C@H](N)[C@H]3O[C@H]3O[C@H](CN)[C@@H](O)[C@H](O)[C@H]3N)O[C@@H]2CO)[C@H](N)[C@@H](O)[C@@H]1O` [neomycin], for which the equilibrium dissociation constant (Kd) at APH(3’)-IIb WT [1] is 12 ± 2 nM. In addition, the Km on APH(3’)-IIb WT [2] turned out to be 0.07 ± 0.06 µM.
As to `NC[C@H]1O[C@H](O[C@H]2[C@H](O)[C@@H](O[C@H]3O[C@H](CO)[C@@H](O)[C@H](N)[C@H]3O)[C@H](N)C[C@@H]2N)[C@H](O)[C@@H](O)[C@@H]1O` [kanamycin A], the Km at APH(3’)-IIb WT [2] came to 0.17 ± 0.06 µM.
On APH(3’)-IIb WT [1], `NC[C@H]1O[C@H](O[C@H]2[C@H](O)[C@@H](O[C@H]3O[C@H](CO)[C@@H](O)[C@H](N)[C@H]3O)[C@H](N)C[C@@H]2N)[C@H](N)[C@@H](O)[C@@H]1O` [kanamycin B] yielded a dissociation constant Kd of 2 ± 1 nM. In addition, the Km at APH(3’)-IIb WT [2] amounted to 0.05 ± 0.03 µM.
Regarding `Nc1ncnc2c1ncn2[C@@H]1O[C@H](COP(=O)(O)OP(=O)(O)OP(=O)(O)O)[C@@H](O)[C@H]1O` [ATP], the Kd on APH(3’)-IIb WT [1] came to 10000 ± 700 nM.
Take `NC[C@@H]1O[C@H](O[C@H]2[C@@H](O)[C@H](O[C@@H]3[C@@H](O)[C@H](N)C[C@H](N)[C@H]3O[C@H]3O[C@H](CO)[C@@H](O)[C@H](O)[C@H]3N)O[C@@H]2CO)[C@H](N)[C@@H](O)[C@@H]1O` [paromomycin]: on APH(3’)-IIb WT [1], binding was put at a Kd of 173 ± 8 nM. Besides, the Michaelis-Menten constant (Km) at APH(3’)-IIb WT [2] is 0.53 ± 0.21 µM.
